Source: PMC6556873, “Rapid Covalent-Probe Discovery by Electrophile-Fragment Screening” (Journal of the American Chemical Society, 2019)
Where two headings read alike, the source gives them in different places.

Legend:
in vitro [1] = assay: in vitro; design: species or system HB2, HEK293; settings: human, ccd841 cells
in vitro [2] = assay: in vitro; design: species or system CCD841, HEK293; settings: human, hb2 cells, read-out: HB-2 Cells Viability (%)
PCAF = biological target: T1, PCAF (Homo sapiens, UniProt Q92831); design: Intact protein LC/MS covalent labelling, fragments in pools of five, 200 uM each, 4 °C; settings: 24 h, 4 °C, pool of five; 200 µM; covalent
T1 construct: gene KAT2B
T1 sequence (Q92831 whole entry, the tested form may be a part): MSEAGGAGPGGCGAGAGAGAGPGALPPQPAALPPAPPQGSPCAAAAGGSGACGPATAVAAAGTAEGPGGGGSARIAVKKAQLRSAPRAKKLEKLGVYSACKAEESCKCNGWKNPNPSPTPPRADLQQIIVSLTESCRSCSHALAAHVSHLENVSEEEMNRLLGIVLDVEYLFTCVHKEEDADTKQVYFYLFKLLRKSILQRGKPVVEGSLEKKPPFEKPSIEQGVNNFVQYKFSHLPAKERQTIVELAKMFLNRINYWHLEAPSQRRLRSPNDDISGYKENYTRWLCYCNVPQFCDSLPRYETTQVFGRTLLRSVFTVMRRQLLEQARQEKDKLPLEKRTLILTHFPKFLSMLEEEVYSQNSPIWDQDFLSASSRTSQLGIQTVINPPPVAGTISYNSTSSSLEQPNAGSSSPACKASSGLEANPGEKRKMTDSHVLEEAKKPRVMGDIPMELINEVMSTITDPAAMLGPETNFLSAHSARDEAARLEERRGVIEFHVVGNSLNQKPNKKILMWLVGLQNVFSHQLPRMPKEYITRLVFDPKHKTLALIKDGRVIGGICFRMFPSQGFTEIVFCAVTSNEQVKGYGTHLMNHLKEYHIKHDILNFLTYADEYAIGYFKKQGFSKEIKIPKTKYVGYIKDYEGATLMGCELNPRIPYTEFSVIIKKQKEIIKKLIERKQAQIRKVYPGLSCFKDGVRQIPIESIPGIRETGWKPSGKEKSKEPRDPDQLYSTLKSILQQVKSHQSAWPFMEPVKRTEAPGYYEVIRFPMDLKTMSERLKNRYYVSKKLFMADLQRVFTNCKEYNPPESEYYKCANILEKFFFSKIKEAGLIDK
Method: (§1) Incubations were performed at 200 μM for each compound and 2 μM of protein (10 μM for BSA) for 24 h at 4 °C with moderate shaking. Incubation buffers varied among proteins (PBS pH 7.4 for QSOX1 and BSA; 10 mM HEPES pH 7.5, 0.3 M NaCl, 0.5 mM TCEP for PCAF, UPS8, and NUDT7; […]; 10 mM Na2HPO4 pH 7.5 100 mM NaCl 5 mM β-mercaptoethanol for NV3CP; 20 mM Na phosphate pH 7.5 for NNMT; […]. The reaction was stopped by quenching with formic acid, 0.4% final concentration. Each protein was incubated with the electrophilic library in pools of five compounds per well. The pool’s composition maximized the difference in mass between fragments in the same well. Incubations were performed with each fragment at 200 μM, for 24 h at 4 °C, to allow the screening of proteins that are not stable for long time periods at higher temperatures. Following incubation, we used intact protein [compound left out] chromatography/mass spectrometry (LC/MS) to identify the fragments and quantify their labeling (Figure 3A). […] There was good agreement between the percent of labeling of NUDT7 by 100 random individual compounds and that obtained in pools of five (R^2=0.78; Figure S6 and Data set 2 in the Supporting Information).

OTUB2 (OTUB2A) = biological target: T2, OTUB2 (OTUB2A) (Homo sapiens, UniProt Q96DC9); design: Intact protein LC/MS covalent labelling, fragments in pools of five, 200 uM each, 4 °C; settings: 24 h, 4 °C, pool of five; 200 µM; covalent
T2 construct: full length residues 1-234, E. coli BL21(DE3)-R3, His tag removed by TEV, construct 27312 Da
T2 sequence (Q96DC9 1-234): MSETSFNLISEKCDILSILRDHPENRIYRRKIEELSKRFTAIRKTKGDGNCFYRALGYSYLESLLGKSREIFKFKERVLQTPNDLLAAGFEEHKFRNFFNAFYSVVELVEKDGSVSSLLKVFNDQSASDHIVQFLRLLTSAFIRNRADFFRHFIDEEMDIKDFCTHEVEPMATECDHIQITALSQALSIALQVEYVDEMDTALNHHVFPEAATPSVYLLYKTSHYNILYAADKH
Method: as §1

BSA = biological target: T3, BSA (Bos taurus, UniProt P02769); design: Intact protein LC/MS covalent labelling, fragments in pools of five, 200 uM each, 4 °C; settings: 24 h, 4 °C, pool of five; 200 µM; covalent
T3 construct: gene ALB
T3 sequence (P02769 whole entry, the tested form may be a part): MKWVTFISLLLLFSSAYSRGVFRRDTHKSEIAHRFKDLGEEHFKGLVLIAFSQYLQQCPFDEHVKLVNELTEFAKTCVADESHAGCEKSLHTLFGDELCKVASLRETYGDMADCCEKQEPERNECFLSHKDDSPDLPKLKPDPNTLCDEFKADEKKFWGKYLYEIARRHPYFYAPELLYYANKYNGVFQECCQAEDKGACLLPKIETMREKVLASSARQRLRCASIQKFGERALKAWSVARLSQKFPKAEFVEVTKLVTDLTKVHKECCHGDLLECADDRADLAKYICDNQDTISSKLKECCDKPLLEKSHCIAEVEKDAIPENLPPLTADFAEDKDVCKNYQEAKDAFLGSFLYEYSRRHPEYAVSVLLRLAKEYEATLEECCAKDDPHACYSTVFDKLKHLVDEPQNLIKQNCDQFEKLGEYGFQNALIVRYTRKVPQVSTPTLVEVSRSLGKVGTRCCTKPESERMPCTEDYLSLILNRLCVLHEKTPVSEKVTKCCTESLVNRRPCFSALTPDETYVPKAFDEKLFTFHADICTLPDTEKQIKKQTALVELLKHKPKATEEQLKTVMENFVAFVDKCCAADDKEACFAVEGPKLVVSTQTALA
Method: as §1

in vitro [3] = assay: in vitro; design: species or system HB2, CCD841; settings: human, hek293 cells
NUDT7 = biological target: T4, NUDT7 (Homo sapiens, UniProt P0C024); design: Intact protein LC/MS covalent labelling, fragments in pools of five, 200 uM each, 4 °C; settings: 24 h, 4 °C, pool of five; 200 µM; covalent
T4 construct: residues 14-235, E. coli, pNIC28-Bsa4, N-terminal His6 tag removed by TEV, construct 26672 Da
T4 sequence (P0C024 14-235): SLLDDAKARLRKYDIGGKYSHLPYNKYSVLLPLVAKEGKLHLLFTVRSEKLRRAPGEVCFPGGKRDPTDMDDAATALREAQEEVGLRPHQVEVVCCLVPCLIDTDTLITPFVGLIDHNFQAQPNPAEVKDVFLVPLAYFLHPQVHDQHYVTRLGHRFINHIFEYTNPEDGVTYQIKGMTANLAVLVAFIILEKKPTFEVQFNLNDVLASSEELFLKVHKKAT
Method: as §1

| PCAF (PCAF) | OTUB2 (OTUB2 (OTUB2A)) | BSA (BSA) | NUDT7 (NUDT7) | Compound | viability at 48 h, 10 µM (in vitro [1]) [%] | viability at 48 h, 10 µM (in vitro [2]) [%] | viability at 48 h, 10 µM (in vitro [3]) [%] |
| --- | --- | --- | --- | --- | --- | --- | --- |
| 0 | 0 | 0 |  | Cc1nc(NC(=O)CCl)sc1C [PCM-0102124] | 66.1 | 47.2 | 32.2 |
| 0 | 0 | 0 |  | O=C(CCl)N1N=C(c2ccco2)CC1c1cccs1 (centres unmarked) [PCM-0102182] | 18.2 | 14.9 | 2 |
| 0 | 0 | 0 |  | O=C(CCl)Nc1nncs1 [PCM-0102427] | 91 | 89.6 | 99.2 |
| 0 | 0 | 0 |  | O=C(CCl)N1CCC2CCCCC2C1 (centres unmarked) [PCM-0102474] | 54.4 | 24.3 | 15.3 |
| 0 | 0 | 0 |  | Cc1cc(SC#N)ccc1NC(=O)CCl [PCM-0102508] | 19.6 | 14.1 | 27.8 |
| 0 | 0 | 0 |  | C=CC(=O)NC(C)(C)c1cc(C(F)(F)F)on1 [PCM-0102528] | 109 | 99.9 | 104 |
| 0 | 0 | 0 |  | C=CC(=O)N1CCCC(c2cnn(C)c2)C1 (centres unmarked) [PCM-0102641] | 115 | 107 | 81.4 |
| 0 | 0 | 0 |  | C=CC(=O)N1C2CCC1CC(O)(Cc1ccc(F)cc1F)C2 (centres unmarked) [PCM-0102642] | 103 | 102 | 92.5 |
| 0 | 0 |  |  | C=CC(=O)N=C1N=C2C=CC(I)=CN2Cc2ccccc21 [PCM-0102846] | 87.7 | 92.6 | 76.9 |
| 0 |  | 0 | 0 | C=CC(=O)Nc1ccc(C)c(F)c1 [PCM-0102878] | 97.9 | 102 | 78.8 |
| 0 |  | 0 | 0.36 | O=C(CCl)Nc1ccccc1O [PCM-0102907] | 95.4 | 106 | 80.8 |
| 0 |  | 0 | 0 | Cc1ccc(C(=O)NNC(=O)CCl)cc1 [PCM-0102924] | 123 | 97.6 | 268 |
| 0 |  | 0 | 0 | CC(=O)NC1CCCN(C(=O)CCl)C1 (centres unmarked) [PCM-0102934] | 90 | 100 | 81.8 |
| 0 |  | 0 | 0.25 | O=C(CCl)Nc1nc(-c2ccco2)cs1 [PCM-0102979] | 89.7 | 44 | 66 |
| 0 |  | 0 | 0 | CC(NC(=O)CCl)C(=O)O (centres unmarked) [PCM-0102990] | 115 | 102 | 103 |
| 0 |  | 0 | 0 | Cc1ccc(NC(=O)CCl)c(C)c1 [PCM-0103041] | 70.5 | 75.7 | 49.9 |
| 0 |  | 0 | 0 | C=CC(=O)NC1(C#N)CCOC1 (centres unmarked) [PCM-0103049] | 95.7 | 99.3 | 115 |
